Measurements taken from paper PMC6045597, “Probiotics in human gut microbiota can degrade host glycosaminoglycans” (Scientific Reports, 2018).

Tests used:
Experiment in all cases: coupled NADH oxidation at […] nm
Format in all cases: biochemical
KduI = target: T1, KduI (Lacticaseibacillus rhamnosus, UniProt C2JUP1); settings: isomerase coupled with reductase DhuD or KduD; DHU prepared from unsaturated chondroitin disaccharide (6-sulfate) with UGL
T1 construct: recombinant, expressed in E. coli, purified to homogeneity; encoded in GAG genetic cluster
T1 sequence (C2JUP1 1-281): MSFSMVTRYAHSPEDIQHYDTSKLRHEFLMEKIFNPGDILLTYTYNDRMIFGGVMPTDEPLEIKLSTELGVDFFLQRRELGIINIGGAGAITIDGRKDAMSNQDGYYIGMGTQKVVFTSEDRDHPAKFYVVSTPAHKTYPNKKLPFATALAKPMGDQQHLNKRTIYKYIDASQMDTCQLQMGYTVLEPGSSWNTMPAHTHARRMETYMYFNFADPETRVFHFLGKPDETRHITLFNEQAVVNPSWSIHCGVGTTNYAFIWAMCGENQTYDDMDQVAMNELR

DhuI = target: T2, DhuI (Streptococcus agalactiae, UniProt Q8DXE6); settings: reference isomerase, coupled with reductase DhuD or KduD; DHU prepared with UGL
T2 construct: gene SAG1905; purified protein
T2 sequence (Q8DXE6 1-212): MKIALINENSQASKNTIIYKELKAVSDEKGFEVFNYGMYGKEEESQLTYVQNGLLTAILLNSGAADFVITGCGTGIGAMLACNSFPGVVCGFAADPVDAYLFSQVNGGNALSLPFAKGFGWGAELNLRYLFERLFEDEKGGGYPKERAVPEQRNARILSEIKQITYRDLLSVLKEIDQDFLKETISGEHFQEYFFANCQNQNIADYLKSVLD

DhuD = target: T3, DhuD (Streptococcus agalactiae, UniProt Q8E370); settings: reference reductase, DK-II formed in situ from DHU by DhuI or KduI
T3 construct: gene gbs1891; purified protein
T3 sequence (Q8E370 1-270): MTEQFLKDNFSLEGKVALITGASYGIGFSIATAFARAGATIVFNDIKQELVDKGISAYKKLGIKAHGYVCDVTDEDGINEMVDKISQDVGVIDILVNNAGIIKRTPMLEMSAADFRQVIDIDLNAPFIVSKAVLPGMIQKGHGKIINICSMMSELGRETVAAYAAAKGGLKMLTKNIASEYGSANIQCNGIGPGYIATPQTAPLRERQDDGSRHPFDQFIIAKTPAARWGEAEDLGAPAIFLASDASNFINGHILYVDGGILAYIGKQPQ

KduD = target: T4, KduD (Lacticaseibacillus rhamnosus, UniProt A0A0E3CKR8); settings: DK-II formed in situ from DHU by KduI or DhuI
T4 construct: recombinant, expressed in E. coli, purified to homogeneity; encoded in GAG genetic cluster
T4 sequence (A0A0E3CKR8 23-274): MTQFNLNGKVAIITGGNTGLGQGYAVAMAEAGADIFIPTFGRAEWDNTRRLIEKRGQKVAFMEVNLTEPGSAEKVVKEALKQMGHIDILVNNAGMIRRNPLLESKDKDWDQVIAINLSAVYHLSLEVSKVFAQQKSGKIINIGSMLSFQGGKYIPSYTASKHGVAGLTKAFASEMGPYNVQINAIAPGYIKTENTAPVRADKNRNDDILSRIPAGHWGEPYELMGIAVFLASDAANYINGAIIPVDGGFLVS

Structure (SMILES) | coupled NADH oxidation at 340 nm (KduI) | coupled NADH oxidation at 340 nm (DhuI) | coupled NADH oxidation at 340 nm (DhuD) | coupled NADH oxidation at 340 nm (KduD)
O=C[C@H](O)[C@@H](O)CC(=O)C(=O)O [DHU, 4-deoxy-l-threo-5-hexosulose-uronic acid] | KduI catalyses the isomerase reaction from DHU to DK-II | successive reaction of isomerase (DhuI or KduI) and reductase (DhuD or KduD) |  | 
O=C(O)C(=O)C[C@H](O)C(=O)CO [DK-II, 3-deoxy-d-glycero-2,5-hexodiulosonic acid] |  |  | successive reaction of isomerase (DhuI or KduI) and reductase (DhuD or KduD) | DK-II, which is further reduced to KDG by NADH-dependent reductase KduD
NC(=O)C1=CN([C@@H]2O[C@H](COP(=O)(O)OP(=O)(O)OC[C@H]3O[C@@H](n4cnc5c(N)ncnc54)[C@H](O)[C@@H]3O)[C@@H](O)[C@H]2O)C=CC1 [NADH] |  |  |  | further reduced to KDG by NADH-dependent reductase KduD
